# Test results from patent publication US8906944B2, “Compounds as tyrosine kinase modulators” (Allergan, Inc., priority 2009, dated 2014).
# Legend:
# VEGFR2 = VEGFR2 (Homo sapiens, UniProt P35968); test: VEGF stimulated Ca++ signal in vitro (FLIPR)
# Method: VEGF Stimulated Ca^++Signal in Vitro
# Automated FLIPR (Fluorometric Imaging Plate Reader) technology was used to screen for inhibitors of VEGF induced increases in intracellular calcium levels in fluorescent dye loaded endothelial cells. HUVEC (human umbilical vein endothelial cells) (Clonetics) were seeded in 96-well fibronectin coated black-walled plates overnight at 37 degree. C./5% CO2. […] C. Cells were washed 4 times (Original Cell Wash, Labsystems) to remove extracellular dye. […] Data were generated by determining max-min fluorescence levels for unstimulated, stimulated, and drug treated samples. IC50 values for test compounds were calculated from % inhibition of VEGF stimulated responses in the absence of inhibitor.
# [1] = biological target: T1, human VEGF receptor (VEGFR-2) (Homo sapiens, UniProt P35968); test: VEGFR2 kinase assay; assay type: biochemical; conditions: His-VEGFR-2 cytoplasmic domain, 3.6 μM ATP; Table IV, amide or urea linker; read-out: VEGFR2 Enzyme IC50
# T1 construct: The cytoplasmic domain of the human VEGF receptor (VEGFR-2) was expressed; His; made in house; host or cells: insect cells (baculovirus)
# T1 sequence (P35968 786-1356 limits assumed): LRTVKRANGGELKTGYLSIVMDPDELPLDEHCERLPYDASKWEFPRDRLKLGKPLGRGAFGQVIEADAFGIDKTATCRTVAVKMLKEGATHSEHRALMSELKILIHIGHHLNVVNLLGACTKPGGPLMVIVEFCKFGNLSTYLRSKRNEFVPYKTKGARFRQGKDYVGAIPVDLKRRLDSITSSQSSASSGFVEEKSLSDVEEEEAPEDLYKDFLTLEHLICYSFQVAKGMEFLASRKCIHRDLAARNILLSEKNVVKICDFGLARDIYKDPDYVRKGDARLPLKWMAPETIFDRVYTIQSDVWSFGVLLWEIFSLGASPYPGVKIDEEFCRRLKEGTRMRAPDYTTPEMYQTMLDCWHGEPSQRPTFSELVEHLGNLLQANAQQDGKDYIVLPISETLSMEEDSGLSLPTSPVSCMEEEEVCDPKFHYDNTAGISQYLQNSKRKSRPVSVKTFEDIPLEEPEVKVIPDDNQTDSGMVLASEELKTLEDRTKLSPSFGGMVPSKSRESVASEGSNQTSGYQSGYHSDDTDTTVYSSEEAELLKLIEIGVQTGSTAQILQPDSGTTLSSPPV
# How it was run: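 His-tagged VEGFR-2 cytoplasmic domain from baculovirus-infected insect cells phosphorylating plate-bound poly-Glu-Tyr (4:1). IC50 from blank-subtracted optical density versus compound concentration.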
# PDGFβ = PDGFβ (Homo sapiens, UniProt P09619); test: PDGFβ enzyme assay; assay type: biochemical; conditions: Table IV, amide or urea linker
# Sequence of PDGFβ (P09619 33-1106): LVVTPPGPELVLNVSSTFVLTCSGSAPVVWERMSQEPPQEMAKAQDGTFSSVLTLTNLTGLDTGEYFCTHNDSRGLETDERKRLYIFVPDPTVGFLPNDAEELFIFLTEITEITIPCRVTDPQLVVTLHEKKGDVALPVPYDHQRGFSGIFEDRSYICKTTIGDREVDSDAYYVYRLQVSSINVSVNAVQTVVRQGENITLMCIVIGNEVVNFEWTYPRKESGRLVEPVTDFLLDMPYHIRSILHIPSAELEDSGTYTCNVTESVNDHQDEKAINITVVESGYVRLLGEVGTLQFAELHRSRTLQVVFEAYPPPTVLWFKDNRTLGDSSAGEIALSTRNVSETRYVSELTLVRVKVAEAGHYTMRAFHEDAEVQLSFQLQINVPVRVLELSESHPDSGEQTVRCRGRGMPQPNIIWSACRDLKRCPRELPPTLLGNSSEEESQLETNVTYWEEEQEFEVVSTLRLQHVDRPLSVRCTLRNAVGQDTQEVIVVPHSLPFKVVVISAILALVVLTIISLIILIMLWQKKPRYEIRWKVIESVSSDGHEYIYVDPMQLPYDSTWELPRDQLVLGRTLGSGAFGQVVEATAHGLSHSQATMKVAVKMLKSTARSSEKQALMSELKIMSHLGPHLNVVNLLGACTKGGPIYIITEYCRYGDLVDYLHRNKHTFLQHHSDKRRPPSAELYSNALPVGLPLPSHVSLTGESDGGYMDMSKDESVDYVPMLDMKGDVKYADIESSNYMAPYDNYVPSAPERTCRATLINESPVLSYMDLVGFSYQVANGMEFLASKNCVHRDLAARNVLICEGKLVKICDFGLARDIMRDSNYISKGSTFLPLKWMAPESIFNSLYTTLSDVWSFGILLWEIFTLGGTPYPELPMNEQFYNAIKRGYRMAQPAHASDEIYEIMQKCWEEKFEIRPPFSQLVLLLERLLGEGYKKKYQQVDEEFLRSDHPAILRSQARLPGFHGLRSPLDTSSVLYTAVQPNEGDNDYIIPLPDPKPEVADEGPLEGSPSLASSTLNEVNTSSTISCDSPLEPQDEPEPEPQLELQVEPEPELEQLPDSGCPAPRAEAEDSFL
# VEGFR1 = VEGFR1 (Homo sapiens, UniProt P17948); test: VEGFR1 enzyme assay; assay type: biochemical; conditions: Table IV, amide or urea linker
# Sequence of VEGFR1 (P17948 27-1338, species assumed): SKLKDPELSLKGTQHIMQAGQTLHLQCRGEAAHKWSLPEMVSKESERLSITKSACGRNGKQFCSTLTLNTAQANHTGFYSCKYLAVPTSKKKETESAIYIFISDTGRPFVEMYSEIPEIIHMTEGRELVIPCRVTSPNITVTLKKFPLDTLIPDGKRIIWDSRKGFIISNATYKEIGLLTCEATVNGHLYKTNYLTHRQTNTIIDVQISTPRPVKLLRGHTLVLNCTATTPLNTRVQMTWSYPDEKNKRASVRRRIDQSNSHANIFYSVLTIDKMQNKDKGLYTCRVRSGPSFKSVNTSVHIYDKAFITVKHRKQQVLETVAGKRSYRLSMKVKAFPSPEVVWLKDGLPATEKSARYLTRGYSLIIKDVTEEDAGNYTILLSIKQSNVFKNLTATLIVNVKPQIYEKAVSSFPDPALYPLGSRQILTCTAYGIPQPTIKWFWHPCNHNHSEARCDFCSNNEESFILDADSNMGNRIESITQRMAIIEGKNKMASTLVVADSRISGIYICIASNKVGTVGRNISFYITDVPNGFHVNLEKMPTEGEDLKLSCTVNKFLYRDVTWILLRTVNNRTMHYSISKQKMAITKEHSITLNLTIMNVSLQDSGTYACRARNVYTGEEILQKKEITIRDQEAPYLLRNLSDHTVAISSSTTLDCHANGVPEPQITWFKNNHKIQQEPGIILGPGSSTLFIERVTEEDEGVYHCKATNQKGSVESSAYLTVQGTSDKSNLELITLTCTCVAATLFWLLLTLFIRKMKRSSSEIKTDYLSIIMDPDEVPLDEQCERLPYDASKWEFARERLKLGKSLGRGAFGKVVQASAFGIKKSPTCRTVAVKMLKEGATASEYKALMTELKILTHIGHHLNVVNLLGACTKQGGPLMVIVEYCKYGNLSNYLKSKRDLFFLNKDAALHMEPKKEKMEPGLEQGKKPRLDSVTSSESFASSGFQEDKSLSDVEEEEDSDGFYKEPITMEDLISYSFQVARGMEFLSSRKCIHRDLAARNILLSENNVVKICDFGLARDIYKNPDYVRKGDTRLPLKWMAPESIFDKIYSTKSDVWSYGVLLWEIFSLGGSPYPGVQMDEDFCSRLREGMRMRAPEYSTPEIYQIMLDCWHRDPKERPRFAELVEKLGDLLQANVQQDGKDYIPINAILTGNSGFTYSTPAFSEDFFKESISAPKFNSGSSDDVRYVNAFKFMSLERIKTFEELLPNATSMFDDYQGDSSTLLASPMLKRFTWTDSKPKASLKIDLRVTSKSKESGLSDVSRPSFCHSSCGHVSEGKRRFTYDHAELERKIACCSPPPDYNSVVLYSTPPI
# Sequence of VEGFR2 (P35968 20-1356): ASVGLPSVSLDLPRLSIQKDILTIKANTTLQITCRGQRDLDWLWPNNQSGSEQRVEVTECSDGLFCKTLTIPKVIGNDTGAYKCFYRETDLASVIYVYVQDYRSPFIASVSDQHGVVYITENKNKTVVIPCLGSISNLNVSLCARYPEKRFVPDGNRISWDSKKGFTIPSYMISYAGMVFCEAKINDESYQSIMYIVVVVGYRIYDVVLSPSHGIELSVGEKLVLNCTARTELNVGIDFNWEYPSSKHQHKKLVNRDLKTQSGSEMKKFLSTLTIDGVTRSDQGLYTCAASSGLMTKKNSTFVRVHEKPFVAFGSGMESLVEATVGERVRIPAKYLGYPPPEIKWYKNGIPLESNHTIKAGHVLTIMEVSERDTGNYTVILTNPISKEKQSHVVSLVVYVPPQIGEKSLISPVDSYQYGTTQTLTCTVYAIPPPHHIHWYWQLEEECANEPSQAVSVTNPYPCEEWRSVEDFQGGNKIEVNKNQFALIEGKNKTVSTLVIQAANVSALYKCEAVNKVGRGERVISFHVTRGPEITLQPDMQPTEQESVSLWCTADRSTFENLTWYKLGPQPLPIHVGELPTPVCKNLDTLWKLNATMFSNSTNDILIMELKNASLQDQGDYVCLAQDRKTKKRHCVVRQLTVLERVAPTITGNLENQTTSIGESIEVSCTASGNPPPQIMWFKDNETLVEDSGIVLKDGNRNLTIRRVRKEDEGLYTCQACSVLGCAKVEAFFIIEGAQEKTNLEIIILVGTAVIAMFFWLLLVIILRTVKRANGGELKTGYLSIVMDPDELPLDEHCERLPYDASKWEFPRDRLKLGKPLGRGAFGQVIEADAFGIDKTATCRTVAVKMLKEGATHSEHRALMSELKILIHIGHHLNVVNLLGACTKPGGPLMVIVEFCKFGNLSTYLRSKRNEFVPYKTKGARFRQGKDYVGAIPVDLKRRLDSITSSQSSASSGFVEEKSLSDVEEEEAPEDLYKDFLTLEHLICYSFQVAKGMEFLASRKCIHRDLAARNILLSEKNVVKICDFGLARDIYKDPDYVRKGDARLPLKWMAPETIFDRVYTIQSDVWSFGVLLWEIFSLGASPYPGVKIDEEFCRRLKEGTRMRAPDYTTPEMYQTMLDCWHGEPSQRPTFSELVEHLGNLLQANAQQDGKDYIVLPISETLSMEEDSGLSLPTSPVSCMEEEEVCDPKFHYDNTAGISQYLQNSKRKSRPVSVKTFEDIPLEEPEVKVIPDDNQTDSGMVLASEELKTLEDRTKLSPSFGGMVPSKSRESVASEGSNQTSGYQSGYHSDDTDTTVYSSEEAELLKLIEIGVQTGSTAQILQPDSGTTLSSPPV
IC50 (VEGFR2) [nM],IC50 [1] [nM],IC50 (PDGFβ) [nM],IC50 (VEGFR1) [nM],SMILES
3,8,19,8,Cc1cccc(NC(=O)Nc2ccc(Oc3ccnc(-c4cc(C(=O)NCCCO)c[nH]4)c3)cc2)c1 [Example 237]
26,11,33,9,"Cc1ccc(F)c(NC(=O)Nc2ccc(Oc3ccnc(-c4cc(C(=O)NCCCN5CCOC(CO)C5)c[nH]4)c3)cc2)c1 (stereo not drawn) [Example 159, 5-{4-[4-({[(2-fluoro-5-methylphenyl)amino]carbonyl}amino)phenoxy]pyridin-2-yl}-N-{3-[2-(hydroxymethyl)morpholin-4-yl]propyl}-1H-pyrrole-3-carboxamide]"
13,10,19,11,"CCOC(=O)N1CCN(CCCNC(=O)c2c[nH]c(-c3cc(Oc4ccc(NC(=O)Nc5cc(C)ccc5F)c(F)c4)ccn3)c2)CC1 [Example 172, ethyl 4-(3-{[(5-{4-[3-fluoro-4-({[(2-fluoro-5-methylphenyl)amino]carbonyl}amino)phenoxy]pyridin-2-yl}-1H-pyrrol-3-yl)carbonyl]amino}propyl)piperazine-1-carboxylate]"
11,9,27,21,"CCOC(=O)CCCCNC(=O)c1c[nH]c(-c2cc(Oc3ccc(NC(=O)Nc4cc(C)ccc4F)cc3)ccn2)c1 [Example 167, ethyl 5-{[(5-{4-[4-({[(2-fluoro-5-methylphenyl)amino]carbonyl}amino)phenoxy]pyridin-2-yl}-1H-pyrrol-3-yl)carbonyl]amino}pentanoate]"
3,9,38,13,"COC(=O)CN(CCCNC(=O)c1c[nH]c(-c2cc(Oc3ccc(NC(=O)Nc4cc(C)ccc4F)c(F)c3)ccn2)c1)CC(=O)OC [Example 213, dimethyl 2,2′-[(3-{[(5-{4-[3-fluoro-4-({[(2-fluoro-5-methylphenyl)amino]carbonyl}amino)phenoxy]pyridin-2-yl}-1H-pyrrol-3-yl)carbonyl]amino}propyl)imino]diacetate]"
11,11,29,6,"CCOC(=O)CN1CCN(CCCNC(=O)c2c[nH]c(-c3cc(Oc4ccc(NC(=O)Nc5cc(C)ccc5F)cc4)ccn3)c2)CC1 [Example 158, ethyl [4-(3-{[(5-{4-[4-({[(2-fluoro-5-methylphenyl)amino]carbonyl}amino)phenoxy]pyridin-2-yl}-1H-pyrrol-3-yl)carbonyl]amino}propyl)piperazin-1-yl]acetate]"
8,9,29,8,"CCOC(=O)CN1CCN(C(=O)c2c[nH]c(-c3cc(Oc4ccc(NC(=O)Nc5cc(C)ccc5F)c(F)c4)ccn3)c2)CC1 [Example 219, ethyl {4-[(5-{4-[3-fluoro-4-({[(2-fluoro-5-methylphenyl)amino]carbonyl}amino)phenoxy]pyridin-2-yl}-1H-pyrrol-3-yl)carbonyl]piperazin-1-yl}acetate]"
13,11,9,11,"Cc1ccc(F)c(NC(=O)Nc2ccc(Oc3ccnc(-c4cc(C(=O)OCCCN5CCOCC5)c[nH]4)c3)cc2F)c1 [Example 229, 3-morpholin-4-ylpropyl 5-{4-[3-fluoro-4-({[(2-fluoro-5-methylphenyl)amino]carbonyl}amino)phenoxy]pyridin-2-yl}-1H-pyrrole-3-carboxylate]"
5,16,80,39,"COC(=O)[C@@H]1CCCN1CCCNC(=O)c1c[nH]c(-c2cc(Oc3cc(C(=O)Nc4cc(C)ccc4F)ccc3F)ccn2)c1 [Example 243, methyl (2S)-1-{3-[({5-[4-(2-fluoro-5-{[(2-fluoro-5-methylphenyl)amino]carbonyl}phenoxy)pyridin-2-yl]-1H-pyrrol-3-yl}carbonyl)amino]propyl}pyrrolidine-2-carboxylate]"
